No end group written: not given here.
Experiments:
E.faecalis 3689 = test: microbe, parasite or virus in culture; format: cell-based, Enterococcus faecalis
Method: (§1) Antimicrobial activity was measured using the AAMP assay (Wiegand et al., 2008, Nat. Protoc., Vol. 3(2), p 163-175).
(§2) Synergy testing was done with a microtiter plate checkerboard assay as previously described (Orhan et al., 2005, J. Clin. Microbiol., Vol. 43(1), p 140-143). Briefly, equal amounts of antimicrobial A were applied on microtiter plate 1 in wells A1-H1 and then diluted two-fold to wells 2-12. Similarly, equal amounts of antimicrobial B were applied on microtiter plate 2 in wells A1-A12 and diluted two-fold in wells B-H. Volumes of 50 μl of antimicrobial A from each well of microtiter plate 1 were transferred into microtiter plate 3, except for wells H1-H12. Similarly, the same volumes were transferred from microtiter plate 2 into plate 3, except for wells A1-A8. A 100 μl volume of 25 times diluted ON bacterial culture of MRSA was transferred into each well of plate 3. A 50 μl volume of pure broth was added into each well in lines H1-H12 and A1-A8 which were used to estimate MIC values of pure substances (blank).
(§3) Antimicrobial activity was measured using the AAMP assay as described in Example 2.
(§4) Synergy testing was performed as in Example 2.

E. faecalis 3351 = test: microbe, parasite or virus in culture; format: cell-based, Enterococcus faecalis
Method: as §1, §2, §3, §4

E. faecium LMGT 3104 = test: microbe, parasite or virus in culture; format: cell-based, Enterococcus faecium; conditions: Enterococcus faecium, LMGT3104, read-out: MIC, single antimicrobial
Method: as §1, §2, §3, §4

[1] = system: S. aureus biofilms (six strains); test: BOAT, summary over strains; format: cell-based, Staphylococcus aureus
Method: The BOAT assay was performed as described previously (Gronseth et al., 2017, Int. J. Pediatr. Otorhinolaryngol., Vol. 103, p 58-64) with some modifications. The serial dilutions of the antimicrobials were prepared in challenge plates as follows: 175 μl of TSB were transferred in each row of a 96-well microtiter plate, except for the first row, according to the number of microbial strains to treat. In the first row of the plate, the antimicrobials were diluted to their respective working concentrations in a final volume of 350 μl of TSB. From the first row, 175 μl of the antimicrobial dilutions were then transferred to the second row of the plate and further serially diluted to the bottom of the plate. The same procedure was followed to prepare the controls, except that instead of the antimicrobials an equivalent volume of the respective vehicles were used. […] The results were then assessed by monitoring the development (or not) of red formazan (red colour), denoting the retention of metabolic activity by bacterial cells (Moussa et al., 2013, J. Mycol., Vol. 2013; Perez et al., 2010, Lett. Appl. Microbiol., Vol. 51, p 331-337). […] The amount of extracted dye, reflecting the degree of bacterial cell metabolic activity, was then quantified by spectrophotometric readings at 492 nm.

MRSA ATCC 33591 = test: microbe, parasite or virus in culture; format: cell-based, Staphylococcus aureus; conditions: Staphylococcus aureus, 24 h, read-out: MIC, single antimicrobial
Method: as §1, §2, §3, §4

[2] = system: Methicillin-Resistant Staphylococcus aureus; format: in vivo, mice; conditions: repeat on larger groups; data not shown
Method: The experiment was performed essentially as set out in Example 2, except that the following regimes as described below, were used.
50-70 μl of cream was applied per wound.
Treatment was daily for 4 days.
The rifampicin/MP1 experiment was repeated on a larger group of mice in each category (8 mice for each of rifampicin, MP1, rifampicin+MP1, 8 mice with APO base cream 30% as used for rifampicin and MP1, 7 mice untreated). Seven mice were also treated with fucidin cream (2% fusidic acid in a cream base) as a positive control.

[3] = system: clinical S. aureus strains from leprosy-associated skin ulcers (biofilms); test: BOAT on clinical isolates; format: cell-based, Staphylococcus aureus; conditions: 14 clinical S. aureus isolates
Description: Leprosy patients with plantar ulcers who were registered at LEPRA Society, BPHRC, Hyderabad, India during December 2018 through May 2019 (n=31) were enrolled into the study after obtaining an informed consent. The study protocol was approved by the Institutional Ethical Committee at LEPRA Society. A total of thirty-one wound swabs were collected using sterile pure viscose swab (Hi-media, Mumbai, India) and transported immediately for further processing to the microbiology laboratory. One swab was collected from each leprosy foot ulcer. Each swab was inoculated on Blood and McConkey agar and incubated at 37° C. overnight and the plates were examined for growth on the following day. Cultures were identified by colony morphology, Gram staining and other standard tests. […]
The BOAT assay was performed as described previously (Gronseth et al., 2017, Int. J. Pediatr. Otorhinolaryngol., Vol. 103, p 58-64) with some modifications. […] The results were then assessed by monitoring the development (or not) of red formazan (red colour), denoting the retention of metabolic activity by bacterial cells (Moussa et al., 2013, J. Mycol., Vol. 2013; Perez et al., 2010, Lett. Appl. Microbiol., Vol. 51, p 331-337). […] The amount of extracted dye, reflecting the degree of bacterial cell metabolic activity, was then quantified by spectrophotometric readings at 492 nm.

**Q.** Which results are given for `C/C=C(\NC(=O)c1csc(-c2csc(-c3ccc4c(n3)-c3csc(n3)[C@H]([C@@H](C)O)NC(=O)c3csc(n3)[C@H](C(C)C)NC(=O)c3csc(n3)/C(=C/C)NC(=O)[C@H]([C@@H](C)O)NC(=O)c3csc-4n3)n2)n1)C(=O)NC[C@@H](C)O` [MP1, micrococcin P1]?
**A.** MIC (E.faecalis 3689; Enterococcus faecalis, E.faecalis 3689, read-out: MIC, single antimicrobial): > 45 µg/mL; MIC (E. faecalis 3351; Enterococcus faecalis, E. faecalis 3351, read-out: MIC, single antimicrobial): > 45 µg/mL; MIC (E. faecium LMGT 3104): 2.5 µg/mL; effect on biofilm-associated metabolic activity (BOAT) ([1]; six strains, up to 5 mg/ml garvicin KS, 0.1 mg/ml micrococcin P1): ineffective against all the strains; increase in resistance compared to the planktonic state ([1]; some of the biofilm producers): over 160 fold; MIC (MRSA ATCC 33591): 2.5 µg/mL; antimicrobial effect in the mouse skin wound model [2]: Neither MP1 nor the cream base showed any antimicrobial effect

**Q.** Which results are given for “MKFKFNPTGTIVKKLTQYEINWYKQQYGRYPWERPVA [Hybrid K1-EJ]”?
**A.** MIC, single antimicrobial (E.faecalis 3689; 3689): >25 µg/mL; MIC of MP1 in comb. with the labelled antimicrobial (E.faecalis 3689; E.faecalis 3689): 3 µg/mL; MIC of the labelled antimicrobial in comb. with MP1 (E.faecalis 3689; E.faecalis 3689): 1.5 µg/mL; MIC, single antimicrobial (E. faecalis 3351; 3351): >25 µg/mL; MIC of MP1 in comb. with the labelled antimicrobial (E. faecalis 3351; E. faecalis 3351): 5.6 µg/mL; MIC of the labelled antimicrobial in comb. with MP1 (E. faecalis 3351; E. faecalis 3351): 3 µg/mL

B1: Garvicin KS: three-peptide leaderless bacteriocin (GarA, GarB, GarC; SEQ ID NO:6-8), peptides synthesized (peptide, listed as Lactococcus garvieae)
chain 1: MGAIIKAGAKIVGKGVLGGGASWLGWNVGEKIWK
chain 2: MGAIIKAGAKIIGKGLLGGAAGGATYGGLKKIFG
chain 3: MGAIIKAGAKIVGKGALTGGGVWLAEKLFGGK
**Q.** B1 was tested. Which “antimicrobial activity in BOAT on clinical isolates” value [3] did it give?
**A.** showed antimicrobial activity against all the strains
